These results are taken from patent US4398029A, “Quinoline carboxylic acid derivatives and process for the preparation” (Kyorin Seiyaku Kabushiki Kaisha, priority 1981, dated 1983).

Converted amounts (≈) assume the structure as drawn. Read-outs that look alike come from different tables or passages of the source.

In one assay the test system is Shigella sonnei IID 969. Put plainly: microbe, parasite or virus in culture. The conditions noted are these: read-out: Minimum inhibitory concentration. In kind it is cell-based. As for the experimental part:
(§1) The antibacterial activities of the compounds of the present invention were assayed by the standard agar dilution streak method against Gram-positive and Gram-negative bacteria [Chemotherapy, 22, 1126 (1974)].

A further assay concerns Proteus vulgaris 3167. Put plainly: Antibacterial activity (MIC), standard agar dilution streak method. The conditions noted are these: read-out: Minimum inhibitory concentration. In kind it is cell-based. As for the experimental part:
as §1

In assay [1] the test system is Bacillus subtilis PCI 219. The description is as above. The conditions noted are these: PCI219, read-out: Minimum inhibitory concentration. The class given is cell-based. As to the method:
as §1

The subject of assay [2] is Klebsiella pneumoniae IFO 3512. The assay is described as above. The conditions noted are these: read-out: Minimum inhibitory concentration. The class given is cell-based. As to the method: as §1
For the next assay, the system named is P. mirabilis IID 994. The description is as above. The class given is cell-based. The conditions noted are these: Proteus mirabilis, IID994, read-out: Minimum inhibitory concentration. As to the method: as §1
Assay [3] concerns Citrobacter freundii IID 976. The description is as above. In kind it is cell-based. The conditions noted are these: read-out: Minimum inhibitory concentration. As to the method: as §1
In assay [4] the test system is Pseudomonas aeruginosa V-1. The assay is described as above. The class given is cell-based. The conditions noted are these: read-out: Minimum inhibitory concentration. As for the experimental part: as §1
The test system of assay [5] is Salmonella enteritidis IID 604. Described as above. The class given is cell-based. The conditions noted are these: Salmonella enterica, read-out: Minimum inhibitory concentration. As to the method:
as §1

The subject of assay [6] is Yersinia enterocolitica IID 981. The description is as above. The class given is cell-based. The conditions noted are these: read-out: Minimum inhibitory concentration. As for the experimental part:
as §1

Assay [7] deals with Acinetobacter anitratus IID 876. The assay is described as above. In kind it is cell-based. The conditions noted are these: Acinetobacter calcoaceticus, IID876, read-out: Minimum inhibitory concentration. As for the experimental part: as §1
Assay [8] relates to Enterobacter cloacae IID 977. Described as above. The class given is cell-based. The conditions noted are these: IID977; Enterobacter cloacae IID 977; read-out: Minimum inhibitory concentration. As to the method: as §1
The test system of assay [9] is Escherichia coli NIHJ JC-2. The description is as above. In kind it is cell-based. The conditions noted are these: read-out: Minimum inhibitory concentration. As to the method: as §1
Assay [10] has as its system Staphylococcus aureus 209 p. The assay is described as above. In kind it is cell-based. The conditions noted are these: read-out: Minimum inhibitory concentration. As for the experimental part: as §1
A further assay has as its system P. morganii IID 602. The description is as above. The conditions noted are these: Morganella morganii, read-out: Minimum inhibitory concentration. The class given is cell-based. As for the experimental part: as §1
Assay [11] deals with Alcaligenes faecalis 0104002. The assay is described as above. The conditions noted are these: read-out: Minimum inhibitory concentration. The class given is cell-based. As to the method: as §1
Assay [12] has as its system Serratia marcescens IID 618. The description is as above. The conditions noted are these: read-out: Minimum inhibitory concentration. In kind it is cell-based. As for the experimental part: as §1
The subject of the next assay is S. epidermidis IID 866. Described as above. In kind it is cell-based. The conditions noted are these: Staphylococcus epidermidis, IID866, read-out: Minimum inhibitory concentration. As to the method: as §1
A further assay relates to E. coli ATCC 10536. The description is as above. In kind it is cell-based, Escherichia coli. The conditions noted are these: Escherichia coli, ATCC10536, read-out: Minimum inhibitory concentration. As to the method:
as §1

The next assay concerns P. aeruginosa IFO 12689. Described as above. The class given is cell-based, Pseudomonas aeruginosa. The conditions noted are these: Pseudomonas aeruginosa, IFO12689, P. aeruginosa IFO 12689; read-out: Minimum inhibitory concentration. As for the experimental part:
as §1

A further assay deals with S. aureus Terajima. Described as above. The conditions noted are these: Staphylococcus aureus, read-out: Minimum inhibitory concentration. In kind it is cell-based, Staphylococcus aureus. As for the experimental part:
as §1

Setting [13] is: Shigella sonnei, IID969, Shigella sonnei IID 969.
[14] abbreviates: IFO3512, Klebsiella pneumoniae IFO 3512.
[15] abbreviates: IID976, Citrobacter freundii IID 976.
Setting [16] is: IID981, Yersinia enterocolitica IID 981.
Where [17] appears, read: NIHJJC2, Escherichia coli NIHJ JC-2.
[18] abbreviates: IID618, Serratia marcescens IID 618.

As to `Cl.O=C(O)c1cn(CCF)c2c(F)c(N3CCNCC3)c(F)cc2c1=O` [Example 4, 6,8-Difluoro-1-(2-fluoroethyl)-1,4-dihydro-4-oxo-7-(1-piperazinyl)quinoline-3-carboxylic acid hydrochloride], the MIC in the assay with Shigella sonnei IID 969 (setting [13]) is ≤ 0.05 mg/L; in the assay on Proteus vulgaris 3167 (Proteus vulgaris 3167) it was ≤ 0.05 mg/L; in [1] (Bacillus subtilis PCI 219), 0.39 mg/L; in assay [2] (setting [14]) it was ≤ 0.05 mg/L; in the assay with P. mirabilis IID 994 (P. mirabilis IID 994), ≤ 0.05 mg/L; in assay [3] (setting [15]), ≤ 0.05 mg/L. The MIC in assay [4] (Pseudomonas aeruginosa, V1, Pseudomonas aeruginosa V-1) is 6.25 mg/L; in assay [5] (Salmonella enteritidis IID 604), 0.05 mg/L; in assay [6] (setting [16]) it was 0.05 mg/L; in assay [7], 3.13 mg/L; in assay [8] it was ≤ 0.05 mg/L; in assay [9] (setting [17]), ≤ 0.05 mg/L. Besides, the MIC in assay [10] (Staphylococcus aureus 209 p) is 3.13 mg/L; in the assay with P. morganii IID 602 (IID602, P. morganii IID 602), 0.2 mg/L; in assay [11] (Alcaligenes faecalis 0104002) it was 3.13 mg/L; in assay [12] (setting [18]) it was 0.39 mg/L; in the assay with S. epidermidis IID 866, 1.56 mg/L; in the assay with E. coli ATCC 10536, 0.1 mg/L. Also, the MIC came out at 1.56 mg/L in the assay on P. aeruginosa IFO 12689 and 3.13 mg/L in the assay with S. aureus Terajima (S. aureus Terajima).
`C=CCN1CCN(c2c(F)cc3c(=O)c(C(=O)O)cn(CC)c3c2F)CC1` [Example 6, 7-(4-Allyl-1-piperazinyl)-1-ethyl-6,8-difluoro-1,4-dihydro-4-oxoquinoline-3-carboxylic acid]: the MIC in the assay on Shigella sonnei IID 969 (setting [13]) is 0.2 mg/L (≈ 0.53 µM); in the assay on Proteus vulgaris 3167 (Proteus vulgaris, 3167, Proteus vulgaris 3167) it was 0.2 mg/L (≈ 0.53 µM); in assay [1] (Bacillus subtilis PCI 219), 0.1 mg/L (≈ 0.265 µM); in assay [2] (Klebsiella pneumoniae, IFO3512, Klebsiella pneumoniae IFO 3512), ≤ 0.05 mg/L; with P. mirabilis IID 994 (P. mirabilis IID 994), 0.39 mg/L (≈ 1.03 µM); in assay [3] (Citrobacter freundii, IID976, Citrobacter freundii IID 976), 0.78 mg/L (≈ 2.07 µM). In addition, the MIC was 12.5 mg/L (≈ 33.1 µM) in assay [4] (V1, Pseudomonas aeruginosa V-1); 1.56 mg/L (≈ 4.13 µM) in assay [5] (Salmonella enteritidis IID 604); 0.78 mg/L (≈ 2.07 µM) in [6] (Yersinia enterocolitica, IID981, Yersinia enterocolitica IID 981); 0.78 mg/L (≈ 2.07 µM) in [7]; 1.56 mg/L (≈ 4.13 µM) in assay [8]; 0.1 mg/L (≈ 0.265 µM) in assay [9] (Escherichia coli, NIHJJC2, Escherichia coli NIHJ JC-2). The MIC in assay [10] (Staphylococcus aureus 209 p) turned out to be 0.78 mg/L (≈ 2.07 µM); in the assay with P. morganii IID 602 (IID602, P. morganii IID 602), 0.78 mg/L (≈ 2.07 µM); in [11] (Alcaligenes faecalis, 0104002, Alcaligenes faecalis 0104002), 3.13 mg/L (≈ 8.29 µM); in [12] (Serratia marcescens, IID618, Serratia marcescens IID 618) it was 1.56 mg/L (≈ 4.13 µM); with S. epidermidis IID 866 it was 0.78 mg/L (≈ 2.07 µM); with E. coli ATCC 10536 it was 0.39 mg/L (≈ 1.03 µM). Moreover, the figures for the MIC with P. aeruginosa IFO 12689 and with S. aureus Terajima (S. aureus Terajima) were 25 mg/L (≈ 66.2 µM) and 0.78 mg/L (≈ 2.07 µM), respectively.
As to `CCN1CCN(c2c(F)cc3c(=O)c(C(=O)O)cn(CC)c3c2F)CC1` [Example 7, 1-Ethyl-7-(4-ethyl-1-piperazinyl)-6,8-difluoro-1,4-dihydro-4-oxoquinoline-3-carboxylic acid], the MIC was 0.1 mg/L (≈ 0.274 µM) in the assay with Shigella sonnei IID 969 (IID969, Shigella sonnei IID 969); ≤ 0.05 mg/L in the assay with Proteus vulgaris 3167 (Proteus vulgaris 3167); 0.1 mg/L (≈ 0.274 µM) in assay [1] (Bacillus subtilis); ≤ 0.05 mg/L in [2] (setting [14]); 0.2 mg/L (≈ 0.547 µM) in the assay with P. mirabilis IID 994; 0.2 mg/L (≈ 0.547 µM) in assay [3] (setting [15]). Also, the MIC in assay [4] (Pseudomonas aeruginosa, V1) is 6.25 mg/L (≈ 17.1 µM); in assay [5], 0.39 mg/L (≈ 1.07 µM); in assay [6] (setting [16]), 0.2 mg/L (≈ 0.547 µM); in assay [7], 0.39 mg/L (≈ 1.07 µM); in assay [8], 0.39 mg/L (≈ 1.07 µM); in assay [9] (setting [17]), ≤ 0.05 mg/L. The MIC is 0.78 mg/L (≈ 2.13 µM) in assay [10] (Staphylococcus aureus, 209P); 0.39 mg/L (≈ 1.07 µM) with P. morganii IID 602 (IID602); 1.56 mg/L (≈ 4.27 µM) in assay [11] (Alcaligenes faecalis 0104002); 0.39 mg/L (≈ 1.07 µM) in assay [12] (setting [18]); 0.78 mg/L (≈ 2.13 µM) with S. epidermidis IID 866; 0.1 mg/L (≈ 0.274 µM) with E. coli ATCC 10536. Moreover, the MIC in the assay with P. aeruginosa IFO 12689 stood at 6.25 mg/L (≈ 17.1 µM); with S. aureus Terajima it was 0.78 mg/L (≈ 2.13 µM).
